Experimental data reported in PubChem BioAssay AID1963872 (Molecular Pharmacology Branch, DTP, NCI, 2024).

Test system: KRAS patient-derived spheroids with HUVEC/MSC, viability
Experiment: Anticancer human tumor 519858-162-T-J1-PDC patient-derived colon adenocarcinoma cell line growth inhibition [KRAS2]
Settings: for IC50: curve of first compound; for viability, T/C: stronger effect = lower value
Source text: Multicellular complex tumor spheroid response to RAS pathway inhibitors in combination with a targeted agents in patient-derived cell lines with oncogenic KRAS variants from multiple cancer types
A high-throughput screen of multi-cell type tumor spheroids was designed to identify active combinations of targeted small molecules and KRAS pathway inhibitors. Complex spheroids include a stromal component modeled by human endothelial cells (HUVEC) and fibroblasts modeled by human mesenchymal stem cells (MSCs). The concentration ranges selected for each drug and investigational agent were based upon clinically achievable concentrations if the clinical Cmax of the agent was known.
Compounds. The drugs and investigational agents: BI-3406 (NSC825286), BAY-293 (NSC824723), batoprotafib (TNO155; NSC825523), sotorasib (AMG 510; NSC818433), MRTX1257 (NSC819558), elimusertib (BAY 1895344; NSC800525), molibresib (GSK525762; NSC774829), temuterkib (LY3214996; NSC803410), venetoclax (NSC766270), alisertib (NSC759677), olaparib (NSC753686), talazoparib (NSC767125), erdafitinib (NSC781556), ipatasertib (NSC767898), cabozantinib (NSC761068), nintedanib (NSC756659), abemaciclib (NSC768073), docetaxel (NSC628503), trametinib (NSC758246), and sapanisertib (NSC764658) were obtained from the National Cancer Institute (NCI) Developmental Therapeutics Program Chemical Repository. The FDA-approved anticancer drug set is available from the Developmental Therapeutics Program. […] The stock solutions were prepared in dimethyl sulfoxide (DMSO, Sigma-Aldrich, St. Louis, MO, cat. D2650) at 800-fold the tested concentration and stored at -70 degrees C prior to their use. All drugs and investigational agents were tested over a range starting from a high concentration at or near the clinical Cmax and decreasing in half-log increments. If the clinical Cmax for an agent had not been determined, the highest concentration tested was 10 microM.
Cell Culture. All cells were maintained in an incubator at 37 degrees C and 5% CO2 with 95% humidity. The PDC lines were cultured according to standard operating procedures established by the NCI PDMR (https://pdmr.cancer.gov/sops/default.htm). Briefly, all PDCs were thawed and cultured in Matrigel-coated flasks prepared with a working solution of 1X Ham's F-12 nutrient mix, without supplementation (Invitrogen, Waltham, MA, cat. 11765054), 100 U/mL penicillin-streptomycin (Invitrogen, cat. 15140122), and 2.5% Matrigel (Corning Inc., Corning, NY, cat. 354248) for the first three passages. All PDCs were cultured in complete DMEM/F-12 media containing advanced DMEM/F-12 (Invitrogen, cat. 12634028), 4.9% defined fetal bovine serum, heat inactivated (HyClone Laboratories Inc., Logan, UT, cat. SH30070.03HI), 389 ng/mL hydrocortisone (Sigma-Aldrich, cat. H4001), 9.7 ng/mL human EGF recombinant protein (Invitrogen, cat. PHG0313), 23.4 microg/mL adenine (Sigma-Aldrich, cat. A2786), 97.3 U/mL penicillin-streptomycin (Invitrogen, cat. 15140122), 1.9 mM L-glutamine (Invitrogen, cat. 25030081), and 9.7 microM Y-27632 dihydrochloride (Tocris Bioscience, Bristol, United Kingdom, cat. 1254). The PDCs were cultured in complete DMEM/F12 media without 9.7 microM Y-27632 dihydrochloride for at least two passages prior to the screen. The established cell line HOP-62 was cultured in RPMI 1640 medium, HEPES (Invitrogen, cat. 22400105) with 10% defined fetal bovine serum (HyClone Laboratories Inc., cat. SH30070.03) and 2 mM L-glutamine (Invitrogen, cat. 25030081). The pooled donor HUVEC were cultured in endothelial cell growth medium 2 (PromoCell, Heidelberg, Germany, cat. C-22011) and the hMSC were cultured in mesenchymal stem cell growth medium 2 (PromoCell, cat. C-28009). For all experiments, HUVEC and hMSC were used at passages </=5, while the malignant cell lines were used at passages </=15. […]

[1] = second compound 0.1 µM, first compound 0.000316 µM
[2] = second compound 0.1 µM, first compound 0.001 µM
[3] = second compound 0.1 µM, first compound 0.00316 µM
[4] = second compound 0.1 µM, first compound 0.01 µM
[5] = second compound 0.1 µM, first compound 0.0316 µM
[6] = second compound 0.316 µM, first compound 0.000316 µM
[7] = second compound 0.316 µM, first compound 0.001 µM
[8] = second compound 0.316 µM, first compound 0.00316 µM
[9] = second compound 0.316 µM, first compound 0.01 µM
[10] = second compound 0.316 µM, first compound 0.0316 µM
[11] = second compound 1 µM, first compound 0.000316 µM
[12] = second compound 1 µM, first compound 0.001 µM
[13] = second compound 1 µM, first compound 0.00316 µM
[14] = second compound 1 µM, first compound 0.01 µM
[15] = second compound 1 µM, first compound 0.0316 µM
[16] = second compound 3.16 µM, first compound 0.000316 µM
[17] = second compound 3.16 µM, first compound 0.001 µM
[18] = second compound 3.16 µM, first compound 0.00316 µM
[19] = second compound 3.16 µM, first compound 0.01 µM
[20] = second compound 3.16 µM, first compound 0.0316 µM
[21] = second compound 10 µM, first compound 0.000316 µM
[22] = second compound 10 µM, first compound 0.001 µM
[23] = second compound 10 µM, first compound 0.00316 µM
[24] = second compound 10 µM, first compound 0.01 µM
[25] = second compound 10 µM, first compound 0.0316 µM
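Further: compound exposure lasted seven days before readout.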
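Wherever viability, T/C is given: 100% = DMSO vehicle control viability.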

## CC(=O)Nc1cccc(-n2c(=O)n(C3CC3)c(=O)c3c(Nc4ccc(I)cc4F)n(C)c(=O)c(C)c32)c1 + C=CC(=O)N1CCN(c2nc(=O)n(-c3c(C)ccnc3C(C)C)c3nc(-c4c(O)cccc4F)c(F)cc23)C(C)C1
Second compound 0.1 µM
  IC50: 6.3 nM
Second compound 0.316 µM
  IC50: 5.48 nM
Second compound 1 µM
  IC50: 7.54 nM
Second compound 3.16 µM
  IC50: 7.41 nM
Second compound 10 µM
  IC50: 4.51 nM
Second compound 0.1 µM, first compound 0.0001 µM
  viability, T/C: 104%
[1]
  viability, T/C: 99.5%
[2]
  viability, T/C: 66.3%
[3]
  viability, T/C: 83.8%
[4]
  viability, T/C: 28.9%
[5]
  viability, T/C: 20%
Second compound 0.316 µM, first compound 0.0001 µM
  viability, T/C: 85.3%
[6]
  viability, T/C: 97.7%
[7]
  viability, T/C: 93.4%
[8]
  viability, T/C: 59.4%
[9]
  viability, T/C: 40.7%
[10]
  viability, T/C: 23.8%
Second compound 1 µM, first compound 0.0001 µM
  viability, T/C: 96.6%
[11]
  viability, T/C: 67.9%
[12]
  viability, T/C: 79.7%
[13]
  viability, T/C: 74.9%
[14]
  viability, T/C: 41.9%
[15]
  viability, T/C: 25.1%
Second compound 3.16 µM, first compound 0.0001 µM
  viability, T/C: 74.2%
[16]
  viability, T/C: 79%
[17]
  viability, T/C: 76.3%
[18]
  viability, T/C: 102%
[19]
  viability, T/C: 38.4%
[20]
  viability, T/C: 19.1%
Second compound 10 µM, first compound 0.0001 µM
  viability, T/C: 89.7%
[21]
  viability, T/C: 90.5%
[22]
  viability, T/C: 107%
[23]
  viability, T/C: 61.5%
[24]
  viability, T/C: 31%
[25]
  viability, T/C: 17.4%

## CC(C)n1nc(-c2ccc3oc(N)nc3c2)c2c(N)ncnc21 + C=CC(=O)N1CCN(c2nc(=O)n(-c3c(C)ccnc3C(C)C)c3nc(-c4c(O)cccc4F)c(F)cc23)C(C)C1
Second compound 0.1 µM
  IC50: > 100 nM
Second compound 0.316 µM
  IC50: > 100 nM
Second compound 1 µM
  IC50: > 100 nM
Second compound 3.16 µM
  IC50: > 100 nM
Second compound 10 µM
  IC50: 81.5 nM
[1]
  viability, T/C: 114%
[2]
  viability, T/C: 102%
[3]
  viability, T/C: 104%
[4]
  viability, T/C: 67.5%
[5]
  viability, T/C: 76.3%
Second compound 0.1 µM, first compound 0.1 µM
  viability, T/C: 60.1%
[6]
  viability, T/C: 87.5%
[7]
  viability, T/C: 94%
[8]
  viability, T/C: 70.2%
[9]
  viability, T/C: 58.9%
[10]
  viability, T/C: 57.6%
Second compound 0.316 µM, first compound 0.1 µM
  viability, T/C: 54.5%
[11]
  viability, T/C: 108%
[12]
  viability, T/C: 78.4%
[13]
  viability, T/C: 67.3%
[14]
  viability, T/C: 56.7%
[15]
  viability, T/C: 87.3%
Second compound 1 µM, first compound 0.1 µM
  viability, T/C: 54.9%
[16]
  viability, T/C: 94.3%
[17]
  viability, T/C: 75.1%
[18]
  viability, T/C: 74.6%
[19]
  viability, T/C: 68.8%
[20]
  viability, T/C: 64%
Second compound 3.16 µM, first compound 0.1 µM
  viability, T/C: 56.1%
[21]
  viability, T/C: 85.4%
[22]
  viability, T/C: 76.6%
[23]
  viability, T/C: 69.6%
[24]
  viability, T/C: 86.7%
[25]
  viability, T/C: 62.3%
Second compound 10 µM, first compound 0.1 µM
  viability, T/C: 47.1%
